Patent publication US7816134B2, “Method of extensive culture of antigen-specific cytotoxic T cells” (Takara Bio Inc., priority 2000, dated 2010)
Like-named read-outs stand apart in the source and are kept apart here.

Assays:
[1] = tested on: HLA-A2.1-having EBV transformed B-cells (221A2.1); conditions: FluMPA2.1
[2] = tested on: anti-influenza virus memory CTLs (FluMPA2.1); format: cell-based, human
[3] = tested on: HLA-A2.1-having EBV transformed B-cells (221A2.1); conditions: for Cytotoxic Activity (%) E/T Ratio 1 / Cytotoxic Activity (%) E/T Ratio 3 / Cytotoxic Activity (%) E/T Ratio 10: FluMPA2.1
[4] = tested on: anti-tumor-associated antigen(MAGE3)-specific CTLs; assay: Expansion ratio of MAGE3-specific CTLs; format: cell-based, human; conditions: sample 10 μg/ml: induction +, 14 days
From the text: (§1) CTLs prepared in item (1) of Example 2-1 were washed with 5HRPMI, and then made into a suspension having a concentration of 5×10^4 cells/ml. On the other hand, allogenic PBMCs not having HLA-A24 and HLA-A2.1 which were collected in the same manner as in item (1) of Example 1-1 were subjected to X-ray irradiation (3300R), and the cells were washed with the medium and then made into a suspension having a concentration of 5×10^6 cells/ml. These CTLs (2.5×10^4 cells) and allogenic PBMCs (1.25×10^7 cells) were suspended in 10 ml of 5HRPMI, and anti-CD3 antibody (manufactured by Janssen-Kyowa) was further added thereto so as to give a final concentration of 50 ng/ml. The mixture was placed into a flask of 12.5 cm^2 (manufactured by Falcon), and the cells were cultured in a wet-type CO2 incubator at 37° C. for 14 days. […] The expansion ratio (× times ratio) was calculated by dividing the cell count after the expansion by the cell count before the expansion.

[5] = tested on: HLA-A2.1-having EBV transformed B-cells (221A2.1); assay: Specific cytotoxic activity of MAGE3-specific CTLs after expansion; format: cell-based, human; conditions: for Cytotoxic Activity (%): sample induction +, expansion +
From the text: as §1

[6] = tested on: HLA-A2.1-having EBV transformed B-cells (221A2.1); assay: Cytotoxic activity of anti-tumor-associated antigen(MAGE3)-specific CTLs on the thirty-fifth day after the initiation of induction; conditions: 10 μg/ml
[7] = Example 2-4, sample 10 μg/ml during CTL induction +, during expansion +, peptide addition +
[8] = Example 2-4, sample 10 μg/ml during CTL induction +, during expansion +, peptide addition −
[9] = Example 2-6, sample during CTL induction −, during expansion + (10 μg/ml), peptide addition +
[10] = Example 2-6, sample during CTL induction −, during expansion + (10 μg/ml), peptide addition −
[11] = Example 2-4, sample 10 μg/ml during CTL induction +, during expansion +
[12] = Example 2-6, sample during CTL induction −, during expansion + (10 μg/ml)
[13] = Example 1-3, sample 10 μg/ml during CTL induction +, during culture with IL-2 +, peptide addition +
[14] = Example 1-3, sample 10 μg/ml during CTL induction +, during culture with IL-2 +, peptide addition −
[15] = Example 1-5, sample during CTL induction −, during culture with IL-2 + (10 μg/ml), peptide addition +
[16] = Example 1-5, sample during CTL induction −, during culture with IL-2 + (10 μg/ml), peptide addition −
[17] = sample 10 μg/ml only during continuous culture
[18] = Example 2-7, sample 10 μg/ml during CTL induction +, during expansion +, peptide addition +
[19] = Example 2-7, sample 10 μg/ml during CTL induction +, during expansion +, peptide addition −
[20] = Example 2-7, sample 10 μg/ml during CTL induction +, during expansion −, peptide addition +
[21] = Example 2-7, sample 10 μg/ml during CTL induction +, during expansion −, peptide addition −

swellable alginic acid
Cytotoxic Activity (%) E/T Ratio 3 [1, 7]: 65.0% | Cytotoxic Activity (%) E/T Ratio 10 [1, 7]: 101.6% | Cytotoxic Activity (%) E/T Ratio 3 [1, 8]: 14.3% | Cytotoxic Activity (%) E/T Ratio 10 [1, 8]: 21.3% | Cytotoxic Activity (%) E/T Ratio 1 [1, 9]: 15.4% | Cytotoxic Activity (%) E/T Ratio 3 [1, 9]: 22.0% | Cytotoxic Activity (%) E/T Ratio 10 [1, 9]: 47.8% | Cytotoxic Activity (%) E/T Ratio 30 [1, 9]: 81.7% | Cytotoxic Activity (%) E/T Ratio 1 [1, 10]: 0.1% | Cytotoxic Activity (%) E/T Ratio 3 [1, 10]: 0% | Cytotoxic Activity (%) E/T Ratio 10 [1, 10]: 2.1% | Cytotoxic Activity (%) E/T Ratio 30 [1, 10]: 10.6% | Expansion Ratio [2, 11]: × 176 | Expansion Ratio [2, 12]: × 378 | Cytotoxic Activity (%) E/T Ratio 1 [3, 13]: 39.8% | Cytotoxic Activity (%) E/T Ratio 3 [3, 13]: 75.3% | Cytotoxic Activity (%) E/T Ratio 10 [3, 13]: 86.9% | Cytotoxic Activity (%) E/T Ratio 1 [3, 14]: 12.5% | Cytotoxic Activity (%) E/T Ratio 3 [3, 14]: 26.5% | Cytotoxic Activity (%) E/T Ratio 10 [3, 14]: 22.2% | Cytotoxic Activity (%) E/T Ratio 1 [3, 15]: 12.6% | Cytotoxic Activity (%) E/T Ratio 3 [3, 15]: 18.7% | Cytotoxic Activity (%) E/T Ratio 10 [3, 15]: 35.6% | Cytotoxic Activity (%) E/T Ratio 1 [3, 16]: 3.3% | Cytotoxic Activity (%) E/T Ratio 3 [3, 16]: 1.3% | Cytotoxic Activity (%) E/T Ratio 10 [3, 16]: 8.8% | cytotoxic activity after continuous culture (in words) [3, 17]: maintaining an antigen-specific cytotoxic activity

Ardeparin sodium [L. M. W. Heparin, reference compound]
Expansion Ratio [4]: × 433 | Cytotoxic Activity (%) E/T Ratio 3 [1, 7]: 56.4% | Cytotoxic Activity (%) E/T Ratio 10 [1, 7]: 92.9% | Cytotoxic Activity (%) E/T Ratio 3 [1, 8]: 5.2% | Cytotoxic Activity (%) E/T Ratio 10 [1, 8]: 19.6% | Cytotoxic Activity (%) E/T Ratio 1 [1, 9]: 11.3% | Cytotoxic Activity (%) E/T Ratio 3 [1, 9]: 22.2% | Cytotoxic Activity (%) E/T Ratio 10 [1, 9]: 43.9% | Cytotoxic Activity (%) E/T Ratio 30 [1, 9]: 71.2% | Cytotoxic Activity (%) E/T Ratio 1 [1, 10]: 1.4% | Cytotoxic Activity (%) E/T Ratio 3 [1, 10]: 0% | Cytotoxic Activity (%) E/T Ratio 10 [1, 10]: 0.6% | Cytotoxic Activity (%) E/T Ratio 30 [1, 10]: 2.5% | Cytotoxic Activity (%) E/T Ratio 1 [1, 18]: 16.3% | Cytotoxic Activity (%) E/T Ratio 3 [1, 18]: 22.7% | Cytotoxic Activity (%) E/T Ratio 10 [1, 18]: 43.9% | Cytotoxic Activity (%) E/T Ratio 30 [1, 18]: 72.8% | Cytotoxic Activity (%) E/T Ratio 1 [1, 19]: 5.6% | Cytotoxic Activity (%) E/T Ratio 3 [1, 19]: 2.5% | Cytotoxic Activity (%) E/T Ratio 10 [1, 19]: 1.1% | Cytotoxic Activity (%) E/T Ratio 30 [1, 19]: 0.9% | Cytotoxic Activity (%) E/T Ratio 1 [1, 20]: 12.5% | Cytotoxic Activity (%) E/T Ratio 3 [1, 20]: 26.9% | Cytotoxic Activity (%) E/T Ratio 10 [1, 20]: 57.8% | Cytotoxic Activity (%) E/T Ratio 30 [1, 20]: 83.7% | Cytotoxic Activity (%) E/T Ratio 1 [1, 21]: 5.2% | Cytotoxic Activity (%) E/T Ratio 3 [1, 21]: 4.5% | Cytotoxic Activity (%) E/T Ratio 10 [1, 21]: 6.6% | Cytotoxic Activity (%) E/T Ratio 30 [1, 21]: 7.0% | Expansion Ratio [2, 11]: × 240 | Expansion Ratio [2, 12]: × 353 | Expansion Ratio ([2]; Example 2-7, sample 10 μg/ml during CTL induction +, during expansion +): × 243 | Expansion Ratio ([2]; Example 2-7, sample 10 μg/ml during CTL induction +, during expansion −): × 253 | Cytotoxic Activity (%) E/T Ratio 3 [3, 13]: 49.0% | Cytotoxic Activity (%) E/T Ratio 10 [3, 13]: 71.7% | Cytotoxic Activity (%) E/T Ratio 3 [3, 14]: 11.7% | Cytotoxic Activity (%) E/T Ratio 10 [3, 14]: 14.2% | Cytotoxic Activity (%) E/T Ratio 10 [3, 15]: 18.3% | Cytotoxic Activity (%) E/T Ratio 10 [3, 16]: 0% | cytotoxic activity after continuous culture (in words) ([3]; sample 10 μg/ml during CTL induction and during continuous culture, 10 to 14 days): continuous culture of CTLs having an antigen-specific cytotoxic activity can be carried out | cytotoxic activity after continuous culture (in words) [3, 17]: maintaining an antigen-specific cytotoxic activity | cytotoxic activity after expansion for 14 days (in words) ([5]; MAGE3-specific CTLs, sample 10 μg/ml during CTL induction and during expansion): specific, high cytotoxic activity | Cytotoxic Activity (%) ([5]; peptide addition +, E/T ratio 3): 65.3% | Cytotoxic Activity (%) ([5]; peptide addition +, E/T ratio 9): 104.8% | Cytotoxic Activity (%) ([5]; peptide addition −, E/T ratio 3): 2.6% | Cytotoxic Activity (%) ([5]; peptide addition −, E/T ratio 9): 3.7% | difference in the cytotoxic activity by the presence or absence of the addition during the induction [6]: almost no difference
